# Source: patent US20160158317A1, “Antimicrobial Peptide Variants and Polynucleotides Encoding Same” (Adenium Biotech A/S, priority 2010, published 2016)
# Where a SMILES comes first, the peptide text is derived from it. Bridges are numbered along the chain shown (N, C = ends).
# Assay: Determination of the protein binding (90% serum, 30 kDa filter, HPLC)
# Type: in vitro ADME
# Settings: serum
# Procedure: Protein binding assays were performed as follows. The purified peptides were mixed with 90% serum and centrifuged through a 30 kDa filter. The ultra-filtrate and the non filtrated serum samples were quantified by HPLC measurements and the protein binding was subsequently calculated.
row,Compound,fraction unbound
1,"CC(C)[C@@H]1NC(=O)CNC(=O)[C@H](CC(N)=O)NC(=O)[C@H](CCCNC(=N)N)NC(=O)[C@H](Cc2ccc(O)cc2)NC(=O)[C@H](C(C)C)NC(=O)[C@@H]2CSSC[C@H](NC(=O)[C@H](C(C)C)NC(=O)[C@H](CCCNC(=N)N)NC1=O)C(=O)N[C@@H](Cc1c[nH]cn1)C(=O)N[C@@H](CCCNC(=N)N)C(=O)N[C@@H](CCCNC(=N)N)C(=O)N[C@H](C(=O)N[C@@H](CC(N)=O)C(=O)O)CSSC[C@H](NC(=O)[C@H](Cc1ccccc1)NC(=O)CN)C(=O)N[C@@H](Cc1c[nH]c3ccccc13)C(=O)N[C@@H](CC(N)=O)C(=O)N[C@@H](Cc1c[nH]c3ccccc13)C(=O)N2 [compound 267] (H-GFCWNWCVYRNGVRVCHRRCN-OH; disulfide 3-20, 7-16 (inferred); N-terminus and C-terminus assumed)",0.15
2,"CC(C)[C@@H]1NC(=O)CNC(=O)[C@H](CC(N)=O)NC(=O)[C@H](CCCNC(=N)N)NC(=O)[C@H](Cc2ccc(O)cc2)NC(=O)[C@H](Cc2ccccc2)NC(=O)[C@@H]2CSSC[C@H](NC(=O)[C@H](C(C)C)NC(=O)[C@H](CCCNC(=N)N)NC1=O)C(=O)N[C@@H](Cc1c[nH]cn1)C(=O)N[C@@H](CCCNC(=N)N)C(=O)N[C@@H](CCCNC(=N)N)C(=O)N[C@H](C(=O)N[C@@H](CC(N)=O)C(=O)O)CSSC[C@H](NC(=O)[C@H](Cc1ccccc1)NC(=O)CN)C(=O)N[C@@H](Cc1c[nH]c3ccccc13)C(=O)N[C@@H](CC(N)=O)C(=O)N[C@@H](C(C)C)C(=O)N2 [compound 272] (H-GFCWNVCFYRNGVRVCHRRCN-OH; disulfide 3-20, 7-16)",0.26
3,"CC(C)C[C@@H]1NC(=O)[C@@H]2CSSC[C@H](NC(=O)[C@H](C(C)C)NC(=O)[C@H](CCCNC(=N)N)NC(=O)[C@H](C(C)C)NC(=O)CNC(=O)[C@H](CC(N)=O)NC(=O)[C@H](CCCNC(=N)N)NC(=O)[C@H](Cc3ccc(O)cc3)NC1=O)C(=O)N[C@@H](Cc1c[nH]cn1)C(=O)N[C@@H](CCCNC(=N)N)C(=O)N[C@@H](CCCNC(=N)N)C(=O)N[C@H](C(=O)N[C@@H](CC(N)=O)C(=O)O)CSSC[C@H](NC(=O)[C@H](Cc1ccccc1)NC(=O)CN)C(=O)N[C@@H](Cc1c[nH]c3ccccc13)C(=O)N[C@@H](CC(N)=O)C(=O)N[C@@H](C(C)C)C(=O)N2 [compound 275] (H-GFCWNVCLYRNGVRVCHRRCN-OH; disulfide 3-20, 7-16 (inferred); N-terminus and C-terminus assumed)",0.2
4,"CC(C)[C@@H]1NC(=O)CNC(=O)[C@H](CC(N)=O)NC(=O)[C@H](CCCNC(=N)N)NC(=O)[C@H](Cc2ccc(O)cc2)NC(=O)[C@H](C(C)C)NC(=O)[C@@H]2CSSC[C@H](NC(=O)[C@H](C(C)C)NC(=O)[C@H](CCCNC(=N)N)NC1=O)C(=O)N[C@@H](Cc1c[nH]cn1)C(=O)N[C@@H](CCCNC(=N)N)C(=O)N[C@@H](CCCNC(=N)N)C(=O)N[C@H](C(=O)NCC(=O)O)CSSC[C@H](NC(=O)[C@H](Cc1ccccc1)NC(=O)CN)C(=O)N[C@@H](Cc1c[nH]c3ccccc13)C(=O)N[C@@H](CC(N)=O)C(=O)N[C@@H](C(C)C)C(=O)N2 [compound 281] (H-GFCWNVCVYRNGVRVCHRRCG-OH; disulfide 3-20, 7-16 (inferred); N-terminus and C-terminus assumed)",0.34
5,"CC(C)[C@@H]1NC(=O)CNC(=O)[C@H](CC(N)=O)NC(=O)[C@H](CCCNC(=N)N)NC(=O)[C@H](Cc2ccc(O)cc2)NC(=O)[C@H](C(C)C)NC(=O)[C@@H]2CSSC[C@H](NC(=O)[C@H](C(C)C)NC(=O)[C@H](CCCNC(=N)N)NC1=O)C(=O)N[C@@H](Cc1c[nH]cn1)C(=O)N[C@@H](CCCNC(=N)N)C(=O)N[C@@H](CCCNC(=N)N)C(=O)N[C@H](C(=O)N[C@@H](Cc1c[nH]cn1)C(=O)O)CSSC[C@H](NC(=O)[C@H](Cc1ccccc1)NC(=O)CN)C(=O)N[C@@H](Cc1c[nH]c3ccccc13)C(=O)N[C@@H](CC(N)=O)C(=O)N[C@@H](C(C)C)C(=O)N2 [compound 282] (H-GFCWNVCVYRNGVRVCHRRCH-OH; disulfide 3-20, 7-16 (inferred); N-terminus and C-terminus assumed)",0.18
6,"CC(C)[C@@H]1NC(=O)CNC(=O)[C@H](CC(N)=O)NC(=O)[C@H](CCCNC(=N)N)NC(=O)[C@H](Cc2ccc(O)cc2)NC(=O)[C@H](C(C)C)NC(=O)[C@@H]2CSSC[C@H](NC(=O)[C@H](C(C)C)NC(=O)[C@H](CCCNC(=N)N)NC1=O)C(=O)N[C@@H](Cc1c[nH]cn1)C(=O)N[C@@H](CCCNC(=N)N)C(=O)N[C@@H](CCCNC(=N)N)C(=O)N[C@H](C(=O)N[C@@H](CCCCN)C(=O)O)CSSC[C@H](NC(=O)[C@H](Cc1ccccc1)NC(=O)CN)C(=O)N[C@@H](Cc1c[nH]c3ccccc13)C(=O)N[C@@H](CC(N)=O)C(=O)N[C@@H](C(C)C)C(=O)N2 [compound 284] (H-GFCWNVCVYRNGVRVCHRRCK-OH; disulfide 3-20, 7-16 (inferred); N-terminus and C-terminus assumed)",0.28
7,"CC(C)[C@@H]1NC(=O)CNC(=O)[C@H](CC(N)=O)NC(=O)[C@H](CCCNC(=N)N)NC(=O)[C@H](Cc2ccc(O)cc2)NC(=O)[C@H](C(C)C)NC(=O)[C@@H]2CSSC[C@H](NC(=O)[C@H](C(C)C)NC(=O)[C@H](CCCNC(=N)N)NC1=O)C(=O)N[C@@H](Cc1c[nH]cn1)C(=O)N[C@@H](CCCNC(=N)N)C(=O)N[C@@H](CCCNC(=N)N)C(=O)N[C@H](C(=O)N[C@@H](CCCNC(=N)N)C(=O)O)CSSC[C@H](NC(=O)[C@H](Cc1ccccc1)NC(=O)CN)C(=O)N[C@@H](Cc1c[nH]c3ccccc13)C(=O)N[C@@H](CC(N)=O)C(=O)N[C@@H](C(C)C)C(=O)N2 [compound 289] (H-GFCWNVCVYRNGVRVCHRRCR-OH; disulfide 3-20, 7-16 (inferred); N-terminus and C-terminus assumed)",0.17
8,"CC(C)[C@@H]1NC(=O)CNC(=O)[C@H](CC(N)=O)NC(=O)[C@H](CCCNC(=N)N)NC(=O)[C@H](Cc2ccc(O)cc2)NC(=O)[C@H](C(C)C)NC(=O)[C@@H]2CSSC[C@H](NC(=O)[C@H](C(C)C)NC(=O)[C@H](CCCNC(=N)N)NC1=O)C(=O)N[C@@H](Cc1c[nH]cn1)C(=O)N[C@@H](CCCNC(=N)N)C(=O)N[C@@H](CCCNC(=N)N)C(=O)N[C@H](C(=O)N[C@@H](Cc1c[nH]c3ccccc13)C(=O)O)CSSC[C@H](NC(=O)[C@H](Cc1ccccc1)NC(=O)CN)C(=O)N[C@@H](Cc1c[nH]c3ccccc13)C(=O)N[C@@H](CC(N)=O)C(=O)N[C@@H](C(C)C)C(=O)N2 [compound 291] (H-GFCWNVCVYRNGVRVCHRRCW-OH; disulfide 3-20, 7-16 (inferred); N-terminus and C-terminus assumed)",0.01
9,"CC(C)[C@@H]1NC(=O)CNC(=O)[C@H](CC(N)=O)NC(=O)[C@H](CCCNC(=N)N)NC(=O)[C@H](C)NC(=O)[C@H](C(C)C)NC(=O)[C@@H]2CSSC[C@H](NC(=O)[C@H](C(C)C)NC(=O)[C@H](CCCNC(=N)N)NC1=O)C(=O)N[C@@H](Cc1c[nH]cn1)C(=O)N[C@@H](CCCNC(=N)N)C(=O)N[C@@H](CCCNC(=N)N)C(=O)N[C@H](C(=O)N[C@@H](CC(N)=O)C(=O)O)CSSC[C@H](NC(=O)[C@H](Cc1ccccc1)NC(=O)CN)C(=O)N[C@@H](Cc1c[nH]c3ccccc13)C(=O)N[C@@H](CC(N)=O)C(=O)N[C@@H](C(C)C)C(=O)N2 [compound 299] (H-GFCWNVCVARNGVRVCHRRCN-OH; disulfide 3-20, 7-16 (inferred); N-terminus and C-terminus assumed)",0.26
10,"CC(C)[C@@H]1NC(=O)CNC(=O)[C@H](CC(N)=O)NC(=O)[C@H](CCCNC(=N)N)NC(=O)[C@H](Cc2c[nH]cn2)NC(=O)[C@H](C(C)C)NC(=O)[C@@H]2CSSC[C@H](NC(=O)[C@H](C(C)C)NC(=O)[C@H](CCCNC(=N)N)NC1=O)C(=O)N[C@@H](Cc1c[nH]cn1)C(=O)N[C@@H](CCCNC(=N)N)C(=O)N[C@@H](CCCNC(=N)N)C(=O)N[C@H](C(=O)N[C@@H](CC(N)=O)C(=O)O)CSSC[C@H](NC(=O)[C@H](Cc1ccccc1)NC(=O)CN)C(=O)N[C@@H](Cc1c[nH]c3ccccc13)C(=O)N[C@@H](CC(N)=O)C(=O)N[C@@H](C(C)C)C(=O)N2 [compound 303] (H-GFCWNVCVHRNGVRVCHRRCN-OH; disulfide 3-20, 7-16 (inferred); N-terminus and C-terminus assumed)",0.57
11,"CC(C)[C@@H]1NC(=O)CNC(=O)[C@H](CC(N)=O)NC(=O)[C@H](CCCNC(=N)N)NC(=O)[C@H](CCCCN)NC(=O)[C@H](C(C)C)NC(=O)[C@@H]2CSSC[C@H](NC(=O)[C@H](C(C)C)NC(=O)[C@H](CCCNC(=N)N)NC1=O)C(=O)N[C@@H](Cc1c[nH]cn1)C(=O)N[C@@H](CCCNC(=N)N)C(=O)N[C@@H](CCCNC(=N)N)C(=O)N[C@H](C(=O)N[C@@H](CC(N)=O)C(=O)O)CSSC[C@H](NC(=O)[C@H](Cc1ccccc1)NC(=O)CN)C(=O)N[C@@H](Cc1c[nH]c3ccccc13)C(=O)N[C@@H](CC(N)=O)C(=O)N[C@@H](C(C)C)C(=O)N2 [compound 305] (H-GFCWNVCVKRNGVRVCHRRCN-OH; disulfide 3-20, 7-16 (inferred); N-terminus and C-terminus assumed)",0.24
12,"CC(C)[C@@H]1NC(=O)CNC(=O)[C@H](CC(N)=O)NC(=O)[C@H](CCCNC(=N)N)NC(=O)[C@H](CCCNC(=N)N)NC(=O)[C@H](C(C)C)NC(=O)[C@@H]2CSSC[C@H](NC(=O)[C@H](C(C)C)NC(=O)[C@H](CCCNC(=N)N)NC1=O)C(=O)N[C@@H](Cc1c[nH]cn1)C(=O)N[C@@H](CCCNC(=N)N)C(=O)N[C@@H](CCCNC(=N)N)C(=O)N[C@H](C(=O)N[C@@H](CC(N)=O)C(=O)O)CSSC[C@H](NC(=O)[C@H](Cc1ccccc1)NC(=O)CN)C(=O)N[C@@H](Cc1c[nH]c3ccccc13)C(=O)N[C@@H](CC(N)=O)C(=O)N[C@@H](C(C)C)C(=O)N2 [compound 308] (H-GFCWNVCVRRNGVRVCHRRCN-OH; disulfide 3-20, 7-16 (inferred); N-terminus and C-terminus assumed)",0.06
